Test results reported in patent US9504700B2, “Methods and compositions for stimulation and enhancement of regeneration of tissues” (MOUNT DESERT ISLAND BIOLOGICAL LABORATORY, priority 2012, dated 2016).

Tests used:
[1] = system: caudal fin of adult zebrafish; test: Caudal fin regeneration after amputation in adult zebrafish; type: in vivo
Protocol: The purpose of this example was to evaluate the pharmacological effect of aminosterol MSI-1436 administration on the regeneration of the caudal or tail fins of zebrafish. Wildtype adult zebrafish were treated with MSI-1436 or squalamine or a control of phosphate buffered saline solution (PBS) over a four-day period via daily intraperitoneal microinjections. The adult zebrafish were bred and housed in the Yin laboratory at Mount Desert Island Biological Laboratory. The microinjections of PBS, squalamine and MSI-1436 were performed for the duration of the experiments at concentrations of 0.125 mg/kg which corresponds to 50 ng/300 mg body weight which translates to 5-200 mg per dose in humans. On average, a 5 ul volume of 10 ug/ml solution was delivered into each animal with a custom made 10 ul glass syringe (Hamilton part #80008).
The tail or caudal fins were amputated following the second day of intraperitoneal microinjections. These amputations were accomplished using a razor blade to remove approximately 50% of the caudal fins each in a manner perpendicular to the direction of bony ray growth. The zebrafish were maintained at standard conditions of 28° C. at all times during the experiments. At 4 days post-amputation (4 dpa) through 14 dpa, caudal fins were imaged with an Olympus MVX10 stereomicroscope and the length of regenerated tissue from the amputation plane was quantified using Adobe Photoshop.
(The dashed lines correspond to the amputation planes; the scale bar is 1 mm; * corresponds to the Student's ttest p-value <0.01; error bars correspond to SEM; n corresponds to 8-10 fish per group.) MSI-1436 stimulated appendage regeneration 2-fold four days after amputation (4 dpa), as shown in FIG. 2. […] In other words, the rate of regeneration was […] for those animals receiving MSI-1436 than for those receiving either phosphate buffered saline (PBS) or squalamine. Each of the experiments was conducted with at least 6 animals per group. […] FIG. 1 reflects the results of all four experiments.
Wildtype adult zebrafish were subjected to caudal fin amputation and treated daily with either control PBS or MSI-1436 as described above in the context of FIG. 1 for 14 consecutive days during regeneration. (Arrowhead=amputation plane; n=4-6 per group).

[2] = system: caudal fin blastema cells; test: Proliferation of caudal fin blastema cells (H3P staining); type: in vivo, zebrafish; settings: 4 dpa, vs control
Text: The zebrafish caudal fins from the control and MSI-1436 treated animals were extracted at four days post-amputation (4 dpa) and stained with an antibody directed against phosphorylated histone 3 (H3P) as a marker of cell proliferation. […] (Arrowheads highlight subset of H3P positive cells; * corresponds to Student's ttest p-value <0.001; error bars correspond to SEM; n corresponds to 6 fish per group).

zebrafish adult hearts [3] = test: Heart regeneration after partial ventricular resection (cardiomyocyte proliferation index, Mef2+PCNA+); type: in vivo; settings: 3 dpa; 0.125 mg/kg daily ip
Protocol: The pharmacological effect of aminosterol MSI-1436 administration on the regeneration of zebrafish adult hearts was tested using the same experimental paradigm described under the first study of example 1.
Adult zebrafish of 6-8 months old, were subjected to partial ventricular resection procedures followed by daily treatments with intraperitoneal microinjections of PBS (control) or squalamine or MSI-1436 at concentrations of 0.125 mg/kg. The ventricular resection procedures removed ˜20% of the ventricular apex of each heart and challenged each animal to regenerate new heart tissue. At three days post-amputation (3 dpa), hearts were extracted, fixed, cyrosectioned and stained with antibodies directed against Mef2 and PCNA. Cardiomyocyte proliferation indices were determined for each group by representing Mef2+PCNA+cells as a percent of total Mef2+cells within each heart. (*=Student's ttest p-value <0.05; error bars=SEM; n=4 per group).

zebrafish adult hearts [4] = test: Rescue of let-7 miRNA depletion defect in heart regeneration (cardiomyocyte proliferation index); type: in vivo; settings: 3 dpa
Text: To determine if MSI-1436 is capable of rescuing defects in heart regeneration, we microinjected antisense oligonucleotides to bind and remove activity of the let-7 family of small RNAs (miRNAs). Wildtype adult zebrafish were injured via the partial ventricular resection procedure described above and treated with either 1) control of PBS, 2) MSI-1436, 3) miRNA depletion, and 4) miRNA depletion and MSI-1436. At three days post-amputation (3 dpa), hearts were extracted and stained to detect Mef2+PCNA+cells. Cardiomyocyte proliferation indices were determined as a percent of Mef2+PCNA+cells within the total cardiomyocyte population in each heart. (*=Student's ttest p-value <0.05; error bars=SEM; n=8-12 hearts per group) The inclusion of MSI-1436 enhanced cardiomyocyte proliferation indices by 2-fold when compared to control hearts. Depletion of the let-7 family of miRNAs with antisense nucleotides inhibited cardiomyocyte proliferation index by approximately 45%.

[5] = system: Normal, green monkey kidney cells; test: Cellular proliferation of normal green monkey kidney cells; type: cell-based; settings: 0.1 μg/ml or 1.0 μg/ml, two weeks
Protocol: This study was conducted to determine the effects of MSI-1436 on the cellular proliferation of normal, uninjured mammalian cells.
Normal, green monkey kidney cells were cultured with either control media of PBS or supplemented with 0.1 μg/ml or 1.0 μg/ml of MSI-1436. Growth media with and without MSI-1436 were replaced daily and total cell numbers were determined for each group over a period of 2-weeks.

PTP1B = molecular target: T1, PTP1B (Homo sapiens, UniProt P18031); settings: in vitro enzyme assay; cited from earlier work
T1 sequence (P18031 1-435): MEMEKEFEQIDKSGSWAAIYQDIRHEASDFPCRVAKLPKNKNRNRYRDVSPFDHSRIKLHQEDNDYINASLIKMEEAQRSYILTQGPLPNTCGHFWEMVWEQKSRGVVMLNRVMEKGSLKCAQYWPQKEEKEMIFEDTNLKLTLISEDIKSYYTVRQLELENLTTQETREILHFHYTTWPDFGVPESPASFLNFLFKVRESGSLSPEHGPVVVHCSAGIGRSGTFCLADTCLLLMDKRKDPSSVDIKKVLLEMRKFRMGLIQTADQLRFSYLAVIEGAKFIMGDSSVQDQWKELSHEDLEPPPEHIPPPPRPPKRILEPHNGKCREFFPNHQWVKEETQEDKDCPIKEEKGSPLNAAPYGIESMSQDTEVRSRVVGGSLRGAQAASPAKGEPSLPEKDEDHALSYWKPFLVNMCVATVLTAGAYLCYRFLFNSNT

hepatoma cells = settings: cited from earlier work
insulin receptor = settings: mouse, with administration of insulin; cited from earlier work
HIV = settings: tissue culture; cited from earlier work

## CC(C)[C@@H](CC[C@@H](C)[C@H]1CC[C@H]2[C@@H]3[C@H](O)C[C@H]4C[C@@H](NCCCNCCCCNCCCN)CC[C@]4(C)[C@H]3CC[C@]12C)OS(=O)(=O)O [MSI-1436]
[1]; 0.125 mg/kg daily ip
  anatomy of restored tail: anatomically normal
  rate of regeneration greater than PBS or squalamine: 200%
[1]; 14 consecutive days of daily microinjections
  overgrowth of regenerated tissue: did not display any overgrowth
[1]; 14 days post-amputation (14 dpa)
  amount of regenerated tissue vs control: same amount of regenerated tissue
[1]; four days after amputation (4 dpa), 0.125 mg/kg daily ip
  stimulation of appendage regeneration: 2 fold
[2]
  increase in cellular proliferation of blastema cells (H3P positive): 2 fold
Zebrafish adult hearts [3]
  greater rate of heart regeneration, as quantified by cardiomyocyte proliferation indices, vs PBS or squalamine: 2-3 fold
Zebrafish adult hearts [4]
  enhancement of cardiomyocyte proliferation indices vs control hearts: 2 fold
Zebrafish adult hearts [4]; miRNA depletion and MSI-1436
  cardiomyocyte proliferation index in animals with miRNA depletion: restored to wildtype control levels
[5]; media replaced daily
  cellular proliferation plots: normal growth curves
[5]
  overgrowth or hyperproliferation: did not promote overgrowth or hyperproliferation
PTP1B
  PTP1B activity: inhibit the activity of PTP1B
Hepatoma cells
  phosphorylation of the insulin receptor: increase the level of phosphorylation of the insulin receptor
Insulin receptor
  recovery of phosphorylated insulin receptor from the hypothalamus: increase in the recovery of phosphorylated insulin receptor from the hypothalamus
HIV
  antiviral activity against HIV: exhibits antiviral activity against HIV
